Assay results published in patent US11827629B2, “CDGSH iron sulfur domain 2 activators and use thereof” (National Health Research Institutes, priority 2021, dated 2023).

Test system: Male C57BL/6 mice
Assay: In vivo protection against doxorubicin-induced cardiotoxicity (ECG, echocardiography)
Details: 1 mg/kg i.p. twice a day for 2 days, doxorubicin 25 mg/kg i.p., ECG day 4, heart echo day 5
Experimental: Compound 28 was evaluated for protecting against doxorubicin-induced cardiotoxicity in mice.
Male C57BL/6 mice between 7 and 8 months old were treated with Compound 28 (at a dosage of 1 mg/kg) or a vehicle (1.5 wt % of DMF and 3 wt % of Cremophor® EL in PBS) via intraperitoneal injection (i.p.) twice a day for 2 days. At day 0, 1 hour after the treatment with Compound 28, doxorubicin (25 mg/kg, i.p.) or another vehicle (10% DMSO in normal saline) was injected into mice.
Electrocardiogram (ECG) and heart echo on day 4 and day 5 respectively were used as indications of cardiac function. […]
Functional test of heart using ECG was performed as described in Yeh et al., PLoS Biol. 2019, 17, e3000508. […] Continuous 5-minute ECGs were obtained using subcutaneous electrodes attached at the four limbs and recorded with PowerLab® data acquisition system (model ML866, ADInstruments, Colorado Springs, CO) and Animal Bio Amp® (model ML136, ADInstruments). ECG analysis was performed in an unbiased fashion where 1500 beats were analyzed using LabChart® 7 Pro version 7.3.1 (ADInstruments, Inc). […]
Transthoracic mouse echocardiography was used to provide noninvasive imaging of the heart on a VisualSonics® VeVo® 2100 imaging system (VisualSonics, Toronto, Ontario, Canada). […] Body temperature was maintained and monitored at 36° C. to 37° C. on a heated pad (TC-1000, CWE Inc. USA). ECGs were continuously monitored. […]

## O=C(CS(=O)(=O)c1nccs1)N1Cc2ccccc2C1 [Compound 28, 1-(1,3-dihydro-2H-isoindol-2-yl)-2-(1,3-thiazol-2-ylsulfonyl)ethanone]
  protection against doxorubicin-induced cardiotoxicity: protected against doxorubicin-induced cardiotoxicity
